# According to patent US4535081A, “Antiallergic and antiulcer 1-oxo-1H-thiazolo[3,2-a]pyrimidine-2-carboxamides and intermediates therefor” (Pfizer Inc., priority 1983, dated 1985):
# Like-named read-outs stand apart in the source and are kept apart here.
# How the values were obtained:
# [1] = tested on: IgE (reaginic antiserum) PCA reaction; assay: Oral activity in PCA test, IgE; format: in vivo, rat; conditions: Rattus norvegicus, IgE, oral
# Method: (§1) The antiallergy property of the compounds of this invention is evaluated by the passive cutaneous anaphylaxis (PCA) test (Ovary, J. Immun., 81, 355, 1958). In the PCA test, normal animals are injected intradermally (i.d.) with antibodies contained in serum obtained from actively sensitized animals. The animals are then challenged intravenously with antigen mixed with a dye such as Evans' Blue. The increased capillary permeability caused by the antigen-antibody reaction causes the dye to leak from the site of the antibody injection. The test animals are then asphyxiated and the intensity of the reaction determined by measuring the diameter and intensity of the blue coloration on the inner surface of the animals' skin.
# The PCA test is a measure of the anti-allergic (especially anti-asthmatic) activity of a compound. Compounds which inhibit a positive PCA test induced by the rat immunochemical counterpart of human immunoglobulin E (IgE), or reagin, are considered to have anti-allergic activity (C. Mota, Ann. N.Y. Acad. Sci., 103, 264 1963). (Reagin is primarily immunoglobulin E [IgE] and is the principal immunoglobulin responsible for allergic asthma, anaphylaxis, hay fever, food sensitivities and certain manifestations of drug sensitivities, although recent evidence ascribes to the IgG class of antibodies a significant role in the mediation of allergic diseases). Such compounds when administered to a sensitized subject, human or animal, prior to the time when the subject comes into contact with antigens or substances to which it is allergic, will prevent the allergic reaction which would otherwise occur. They, therefore, provide a method for the prophylactic treatment of allergy or anaphylactic reactions of a reagin mediated nature.
# To put it another way, such compounds block the release of mediators resulting from the antigen-antibody (allergic) reaction as illustrated in the PCA test using rat homocytotropic antibody--a known correlate of human reaginic antibody. Inhibition of reaginic antigen-antibody reactions in rats, the test animal of the PCA test, is regarded as representative of inhibition of human reaginic antigen-antibody reactions which occur during allergic episodes.
# The ability of agents to interfere with PCA reactions is measured in male Charles River Wistar rats, 170-210 g. Reaginic antiserum, rich in IgE antibodies, is prepared according to Petillo et al., Int. Arch. Allergy, 44, 309 (1973). Hyperimmune antiserum rich in IgG antibodies to hen egg albumin is prepared according to Orange et al., J. Exptl. Med., 127, 767 (1968). Forty-eight hours prior to antigen challenge, the reaginic antiserum is injected intradermally (i.d.) into the shaved skin of a normal rat's back; 5 hours before challenge the hyperimmune antisera is similarly injected. At a third site 60 mcg. histamine dihydrochloride and 0.5 mcg. serotonin creatinine sulfate are injected i.d. just prior to antigen challenge as a check for antihistaminic, antiserotonin and unspecific types of blockage; the compounds of the instant invention or saline are then administered i.v. and immediately followed by the challenge of 5 mg. egg albumen and 2.5 mg. Evans' Blue dye in saline. In the case of oral administration Evans' Blue dye and egg albumin are given 5 minutes after administration of the drug. Thirty minutes later the animals are asphyxiated using chloroform and the skin of the back removed and reversed for observation. A score is assigned each injection site equal to the product of the diameter of the site in mm. and a grade of 0.1, 0.5, 1, 2, 3 or 4 proportional to intensity of dye coloration. The scores for a given injection site are summed for each group of five animals and compared to the saline treated controls. The difference is expressed as percent blockage due to the compound employed. […]
# [2] = tested on: IgG (hyperimmune antiserum) PCA reaction; assay: Oral activity in PCA test, IgG; format: in vivo; conditions: Rattus norvegicus
# Method: as §1
# The ability of agents to interfere with PCA reactions is measured in male Charles River Wistar rats, 170-210 g. Reaginic antiserum, rich in IgE antibodies, is prepared according to Petillo et al., Int. Arch. Allergy, 44, 309 (1973). Hyperimmune antiserum rich in IgG antibodies to hen egg albumin is prepared according to Orange et al., J. Exptl. Med., 127, 767 (1968). Forty-eight hours prior to antigen challenge, the reaginic antiserum is injected intradermally (i.d.) into the shaved skin of a normal rat's back; 5 hours before challenge the hyperimmune antisera is similarly injected. At a third site 60 mcg. histamine dihydrochloride and 0.5 mcg. serotonin creatinine sulfate are injected i.d. just prior to antigen challenge as a check for antihistaminic, antiserotonin and unspecific types of blockage; the compounds of the instant invention or saline are then administered i.v. and immediately followed by the challenge of 5 mg. egg albumen and 2.5 mg. Evans' Blue dye in saline. In the case of oral administration Evans' Blue dye and egg albumin are given 5 minutes after administration of the drug. Thirty minutes later the animals are asphyxiated using chloroform and the skin of the back removed and reversed for observation. A score is assigned each injection site equal to the product of the diameter of the site in mm. and a grade of 0.1, 0.5, 1, 2, 3 or 4 proportional to intensity of dye coloration. The scores for a given injection site are summed for each group of five animals and compared to the saline treated controls. The difference is expressed as percent blockage due to the compound employed.
# Compounds representative of those of the present invention are tested for antiallergy activity by the above-described procedure and the resulting activities are reported as the degree (%) of protection.
# [3] = Table II acids, read-out: Oral Activity (% of Protection) of Acids in the PCA Test, IgE
# [4] = Table II acids, read-out: Oral Activity (% of Protection) of Acids in the PCA Test, IgG
# [5] = Table I amides, read-out: Oral Activity (% of Protection) in the PCA Test, IgE
# [6] = Table I amides, read-out: Oral Activity (% of Protection) in the PCA Test, IgG
Compound,"inhibition in vivo at 30 mg/kg [1, 3] [%]","inhibition in vivo at 30 mg/kg [2, 4] [%]","inhibition in vivo at 30 mg/kg [1, 5] [%]","inhibition in vivo at 30 mg/kg [2, 6] [%]",also measured
"CCC(C)c1csc2ncc(C(=O)O)c(=O)n12 (centres unmarked) [1-Oxo-1H-7-(2-butyl)thiazolo[3,2-a]pyrimidine-2-carboxylic Acid]",1,8,–,–,–
"O=C(Nc1nnn[nH]1)c1cnc2sc3c(n2c1=O)CCC3 [Formula I: (CH2)3, N-(5-Tetrazolyl)-1-oxo-1H-cyclopentenothiazolo[3,2-a]pyrimidine-2-carboxamide]",–,–,–,–,"inhibition in vivo at 1 mg/kg ([1]; 1 mg./kg., read-out: Oral Activity (% of Protection) in the PCA Test, IgE): 46%; inhibition in vivo at 1 mg/kg ([2]; 1 mg./kg., read-out: Oral Activity (% of Protection) in the PCA Test, IgG): 43%"
"O=C(Nc1nnn[nH]1)c1cnc2sc3c(n2c1=O)CCCCC3 [Formula I: (CH2)5, N-(5-Tetrazolyl)-1-oxo-1H cycloheptenothiazolo[3,2-a]pyrimidine-2-carboxamide]",–,–,25,38,–
"CCc1sc2ncc(C(=O)Nc3nnn[nH]3)c(=O)n2c1C [Formula I: R1=C2H5, R2=CH3, N-(5-Tetrazolyl)-1-oxo-1H-6-ethyl-7-methylthiazolo[3,2-a]pyrimidine-2-carboxamide]",–,–,29,28,–
"CCc1c(C)sc2ncc(C(=O)Nc3nnn[nH]3)c(=O)n12 [Formula I: R1=CH3, R2=C2H5, N-(5-Tetrazolyl)-1-oxo-1H-6-methyl-7-ethylthiazolo[3,2-a]pyrimidine-2-carboxamide]",–,–,75,57,–
"CCc1csc2ncc(C(=O)Nc3nnn[nH]3)c(=O)n12 [Formula I: R1=H, R2=C2H5, N-(5-Tetrazolyl)-1-oxo-1H-7-ethylthiazolo[3,2-a]pyrimidine-2-carboxamide]",–,–,70,44,–
"CC(C)(C)c1csc2ncc(C(=O)Nc3nnn[nH]3)c(=O)n12 [Formula I: R1=H, R2=C(CH3)3, N-(5-Tetrazolyl)-1-oxo-1H-7-(2-methyl-2-propyl)thiazolo[3,2-a]pyrimidine-2-carboxamide]",–,–,37,20,–
"CC(C)c1csc2ncc(C(=O)Nc3nnn[nH]3)c(=O)n12 [Formula I: R1=H, R2=CH(CH3)2, N-(5-Tetrazolyl)-1-oxo-1H-7-isopropylthiazolo[3,2-a]pyrimidine-2-carboxamide]",–,–,72,53,–
"O=C(Nc1nnn[nH]1)c1cnc2sccn2c1=O [Formula I: R1=H, R2=H]",–,–,50,46,–
"O=C(O)c1cnc2sc3c(n2c1=O)CCC3 [Formula II: (CH2)3, 1-Oxo-1H-cyclopentenothiazolo[3,2-a]pyrimidine-2-carboxylic Acid]",0,0,–,–,–
"O=C(O)c1cnc2sc3c(n2c1=O)CCCCC3 [Formula II: (CH2)5, 1-Oxo-1H-cycloheptenothiazolo[3,2-a]pyrimidine-2-carboxylic Acid]",37,44,–,–,–
"O=C(O)c1cnc2sc3c(n2c1=O)CCCCCC3 [Formula II: (CH2)6, 1-Oxo-1H-cyclooctenothiazolo[3,2-a]pyrimidine-2-carboxylic Acid]",68,45,–,–,"inhibition in vivo at 10 mg/kg ([1]; 10 mg./kg., Table II acids, read-out: Oral Activity (% of Protection) of Acids in the PCA Test, IgE): 36%; inhibition in vivo at 10 mg/kg ([2]; 10 mg./kg., Table II acids, read-out: Oral Activity (% of Protection) of Acids in the PCA Test, IgG): 15%"
"CC1(C)CCc2c(sc3ncc(C(=O)O)c(=O)n23)C1 [Formula II: CH2C(CH3)2CH2CH2, 1-Oxo-1H-7,7-dimethylcyclohexenothiazolo[3,2-a]pyrimidine-2-carboxylic Acid]",13,6,–,–,–
"O=C(O)c1cnc2sc3c(n2c1=O)CCC(c1ccccc1)C3 (centres unmarked) [Formula II: CH2CH(C5H6)CH2CH2, 1-oxo-1H-7-phenylcyclohexenothiazolo[3,2-a]pyrimidine-2-carboxylic Acid]",15,5,–,–,–
"CC1CCc2c(sc3ncc(C(=O)O)c(=O)n23)C1 (centres unmarked) [Formula II: CH2CH(CH3)CH2CH2, 1-Oxo-1H-7-methylcyclohexenothiazolo[3,2-a]pyrimidine-2-carboxylic Acid]",31,21,–,–,–
"CCc1sc2ncc(C(=O)O)c(=O)n2c1C [Formula II: R1=C2H5, R2=CH3, 1-Oxo-1H-6-ethyl-7-methylthiazolo[3,2-a]pyrimidine-2-carboxylic Acid]",42,24,–,–,–
"CCc1c(C)sc2ncc(C(=O)O)c(=O)n12 [Formula II: R1=CH3, R2=C2H5, 1-Oxo-1H-6-methyl-7-ethylthiazolo[3,2-a]pyrimidine-2-carboxylic Acid]",0,0,–,–,–
"CCc1csc2ncc(C(=O)O)c(=O)n12 [Formula II: R1=H, R2=C2H5, 1-Oxo-1H-7-ethylthiazolo[3,2-a]pyrimidine-2-carboxylic Acid]",13,21,–,–,–
"CC(C)(C)c1csc2ncc(C(=O)O)c(=O)n12 [Formula II: R1=H, R2=C(CH3)3, 1-Oxo-1H-7-(2-methyl-2-propyl)thiazolo[3,2-a]pyrimidine-2-carboxylic Acid]",10,6,–,–,–
"CC(C)c1csc2ncc(C(=O)O)c(=O)n12 [Formula II: R1=H, R2=CH(CH3)2, 1-Oxo-1H-7-isopropylthiazolo[3,2-a]pyrimidine-2-carboxylic Acid]",0,0,–,–,–
"O=C(O)c1cnc2sccn2c1=O [Formula II: R1=H, R2=H]",18,7,–,–,–
